Measured values reported in ChEMBL document CHEMBL3638496, “Pyrazolopyrrolidine derivatives and their use in the treatment of disease” (2015).
pIC50: −log10 of the molar value.

Key:
[1] = biological target: Bromodomain-containing protein 3 (Homo sapiens, UniProt Q15059); assay: (§1) TR-FRET In-Vitro Binding Assay: All assays were performed in 384-well microtiter plates. Each assay plate contained 8-point serial dilutions for 40 test compounds, plus 16 high- and 16 low controls. Liquid handling and incubation steps were done on an Innovadyne Nanodrop Express equipped with a robotic arm (Thermo CatX, Perkin Elmer/Caliper Twister II) and an incubator (Liconic STX40, Thermo Cytomat 2C450). The assay plates were prepared by addition of 50 nl per well of compound solution in 90% DMSO HummingBird nanodispenser (Zinsser Analytic). The assay was started by stepwise addition of 4.5 uL per well of bromo domain protein (50 mM HEPES, pH 7.5, 0.005% Tween20, 0.1% BSA, 50 mM NaCl, 45 nM His-Brd2(60-472) or 45 nM His-Brd3(20-477) or 45 nM His-Brd4(44-477) all proteins produced in-house) and 4.5 uL per well of peptide solution (50 mM HEPES, pH 7.5, 0.005% Tween20, 0.1% BSA, 50 mM NaCl, 60 nM acetyl-histone H4 (AcK 5, 8, 12, 16) (Biosyntan GmbH)). Reactions were incubated at 30 C. for 35 minutes.
Sequence of Bromodomain-containing protein 3 (Q15059 whole entry, the tested form may be a part): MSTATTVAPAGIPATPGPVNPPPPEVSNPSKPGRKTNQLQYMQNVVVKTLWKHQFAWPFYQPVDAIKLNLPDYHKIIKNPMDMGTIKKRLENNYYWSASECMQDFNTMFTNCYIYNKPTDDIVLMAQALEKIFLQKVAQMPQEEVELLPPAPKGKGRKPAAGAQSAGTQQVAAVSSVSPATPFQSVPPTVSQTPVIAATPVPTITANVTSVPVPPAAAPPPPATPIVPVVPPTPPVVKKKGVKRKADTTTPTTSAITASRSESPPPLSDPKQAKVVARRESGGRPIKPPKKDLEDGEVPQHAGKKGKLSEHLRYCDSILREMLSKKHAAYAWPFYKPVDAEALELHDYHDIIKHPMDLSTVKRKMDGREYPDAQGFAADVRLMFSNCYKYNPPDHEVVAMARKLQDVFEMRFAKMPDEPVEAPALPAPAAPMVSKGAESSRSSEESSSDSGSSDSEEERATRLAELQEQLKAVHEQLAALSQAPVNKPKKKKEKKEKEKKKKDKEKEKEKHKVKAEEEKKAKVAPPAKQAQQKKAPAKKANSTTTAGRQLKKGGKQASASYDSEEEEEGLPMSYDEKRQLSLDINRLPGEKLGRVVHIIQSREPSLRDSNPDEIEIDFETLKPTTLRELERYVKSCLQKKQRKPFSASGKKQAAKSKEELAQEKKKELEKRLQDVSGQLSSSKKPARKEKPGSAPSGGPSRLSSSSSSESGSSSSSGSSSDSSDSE

[2] = biological target: Bromodomain-containing protein 4 (Homo sapiens, UniProt O60885); assay: as §1
[3] = biological target: Bromodomain-containing protein 2 (Homo sapiens, UniProt P25440); assay: as §1
Sequence of Bromodomain-containing protein 2 (P25440 whole entry, the tested form may be a part): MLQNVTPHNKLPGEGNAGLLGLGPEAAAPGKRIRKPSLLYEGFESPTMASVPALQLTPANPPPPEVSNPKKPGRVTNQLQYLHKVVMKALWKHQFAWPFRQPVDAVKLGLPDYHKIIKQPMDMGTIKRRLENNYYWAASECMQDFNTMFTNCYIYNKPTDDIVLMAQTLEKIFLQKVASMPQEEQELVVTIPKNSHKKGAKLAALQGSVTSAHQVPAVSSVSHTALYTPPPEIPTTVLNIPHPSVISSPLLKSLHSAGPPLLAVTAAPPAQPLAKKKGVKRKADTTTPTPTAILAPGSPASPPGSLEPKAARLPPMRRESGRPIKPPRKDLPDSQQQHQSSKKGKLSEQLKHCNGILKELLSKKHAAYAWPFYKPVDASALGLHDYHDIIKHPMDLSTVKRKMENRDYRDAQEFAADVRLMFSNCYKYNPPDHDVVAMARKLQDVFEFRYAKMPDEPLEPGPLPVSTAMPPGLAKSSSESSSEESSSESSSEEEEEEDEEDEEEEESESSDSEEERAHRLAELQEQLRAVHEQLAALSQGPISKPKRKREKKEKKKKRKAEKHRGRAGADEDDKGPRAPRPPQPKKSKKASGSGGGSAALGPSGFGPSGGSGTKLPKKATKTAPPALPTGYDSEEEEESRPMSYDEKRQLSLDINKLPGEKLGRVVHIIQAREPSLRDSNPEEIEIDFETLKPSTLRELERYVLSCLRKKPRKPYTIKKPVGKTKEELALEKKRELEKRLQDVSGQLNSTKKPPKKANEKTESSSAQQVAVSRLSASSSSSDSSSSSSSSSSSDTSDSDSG

CREB-binding protein = CREB-binding protein (Homo sapiens, UniProt Q92793); assay: AlphaScreen In-Vitro Binding Assay: In order to assess bromodomain selectivity, we set up a binding assay using the bromodomain encoded by the CREBBP gene. Compounds were tested in the CREBBP assay with a similar protocol, however using AlphaScreen (Amplified Luminescent Proximity Homogeneous Assay, Perkin Elmer) as detection readout instead of TR-FRET. The assay was started by stepwise addition of 4.5 uL per well of bromo domain protein (50 mM HEPES, pH 7.5, 0.005% Tween20, 0.02% BSA, 150 mM NaCl, 324 nM His-CREBBP (1081-1197) (custom production at Viva Biotech Ltd.)) and 4.5 uL per well of peptide solution (50 mM HEPES, pH 7.5, 0.005% Tween20, 0.02% BSA, 150 mM NaCl, 120 nM acetyl-histone H4 (AcK 5, 8, 12) (Biosyntan GmbH)). Reactions were incubated at 30 C. for 35 minutes. Subsequently 4.5 uL per well detection mix (50 mM HEPES, pH 7.5, 0.005% Tween20, 0.02% BSA, 150 mM NaCl, 45 ug/ml Ni-chelate acceptor beads, 45 ug/mL streptavidin-donor beads) (Perkin Elmer)) were added.
Sequence of CREB-binding protein (Q92793 whole entry, the tested form may be a part): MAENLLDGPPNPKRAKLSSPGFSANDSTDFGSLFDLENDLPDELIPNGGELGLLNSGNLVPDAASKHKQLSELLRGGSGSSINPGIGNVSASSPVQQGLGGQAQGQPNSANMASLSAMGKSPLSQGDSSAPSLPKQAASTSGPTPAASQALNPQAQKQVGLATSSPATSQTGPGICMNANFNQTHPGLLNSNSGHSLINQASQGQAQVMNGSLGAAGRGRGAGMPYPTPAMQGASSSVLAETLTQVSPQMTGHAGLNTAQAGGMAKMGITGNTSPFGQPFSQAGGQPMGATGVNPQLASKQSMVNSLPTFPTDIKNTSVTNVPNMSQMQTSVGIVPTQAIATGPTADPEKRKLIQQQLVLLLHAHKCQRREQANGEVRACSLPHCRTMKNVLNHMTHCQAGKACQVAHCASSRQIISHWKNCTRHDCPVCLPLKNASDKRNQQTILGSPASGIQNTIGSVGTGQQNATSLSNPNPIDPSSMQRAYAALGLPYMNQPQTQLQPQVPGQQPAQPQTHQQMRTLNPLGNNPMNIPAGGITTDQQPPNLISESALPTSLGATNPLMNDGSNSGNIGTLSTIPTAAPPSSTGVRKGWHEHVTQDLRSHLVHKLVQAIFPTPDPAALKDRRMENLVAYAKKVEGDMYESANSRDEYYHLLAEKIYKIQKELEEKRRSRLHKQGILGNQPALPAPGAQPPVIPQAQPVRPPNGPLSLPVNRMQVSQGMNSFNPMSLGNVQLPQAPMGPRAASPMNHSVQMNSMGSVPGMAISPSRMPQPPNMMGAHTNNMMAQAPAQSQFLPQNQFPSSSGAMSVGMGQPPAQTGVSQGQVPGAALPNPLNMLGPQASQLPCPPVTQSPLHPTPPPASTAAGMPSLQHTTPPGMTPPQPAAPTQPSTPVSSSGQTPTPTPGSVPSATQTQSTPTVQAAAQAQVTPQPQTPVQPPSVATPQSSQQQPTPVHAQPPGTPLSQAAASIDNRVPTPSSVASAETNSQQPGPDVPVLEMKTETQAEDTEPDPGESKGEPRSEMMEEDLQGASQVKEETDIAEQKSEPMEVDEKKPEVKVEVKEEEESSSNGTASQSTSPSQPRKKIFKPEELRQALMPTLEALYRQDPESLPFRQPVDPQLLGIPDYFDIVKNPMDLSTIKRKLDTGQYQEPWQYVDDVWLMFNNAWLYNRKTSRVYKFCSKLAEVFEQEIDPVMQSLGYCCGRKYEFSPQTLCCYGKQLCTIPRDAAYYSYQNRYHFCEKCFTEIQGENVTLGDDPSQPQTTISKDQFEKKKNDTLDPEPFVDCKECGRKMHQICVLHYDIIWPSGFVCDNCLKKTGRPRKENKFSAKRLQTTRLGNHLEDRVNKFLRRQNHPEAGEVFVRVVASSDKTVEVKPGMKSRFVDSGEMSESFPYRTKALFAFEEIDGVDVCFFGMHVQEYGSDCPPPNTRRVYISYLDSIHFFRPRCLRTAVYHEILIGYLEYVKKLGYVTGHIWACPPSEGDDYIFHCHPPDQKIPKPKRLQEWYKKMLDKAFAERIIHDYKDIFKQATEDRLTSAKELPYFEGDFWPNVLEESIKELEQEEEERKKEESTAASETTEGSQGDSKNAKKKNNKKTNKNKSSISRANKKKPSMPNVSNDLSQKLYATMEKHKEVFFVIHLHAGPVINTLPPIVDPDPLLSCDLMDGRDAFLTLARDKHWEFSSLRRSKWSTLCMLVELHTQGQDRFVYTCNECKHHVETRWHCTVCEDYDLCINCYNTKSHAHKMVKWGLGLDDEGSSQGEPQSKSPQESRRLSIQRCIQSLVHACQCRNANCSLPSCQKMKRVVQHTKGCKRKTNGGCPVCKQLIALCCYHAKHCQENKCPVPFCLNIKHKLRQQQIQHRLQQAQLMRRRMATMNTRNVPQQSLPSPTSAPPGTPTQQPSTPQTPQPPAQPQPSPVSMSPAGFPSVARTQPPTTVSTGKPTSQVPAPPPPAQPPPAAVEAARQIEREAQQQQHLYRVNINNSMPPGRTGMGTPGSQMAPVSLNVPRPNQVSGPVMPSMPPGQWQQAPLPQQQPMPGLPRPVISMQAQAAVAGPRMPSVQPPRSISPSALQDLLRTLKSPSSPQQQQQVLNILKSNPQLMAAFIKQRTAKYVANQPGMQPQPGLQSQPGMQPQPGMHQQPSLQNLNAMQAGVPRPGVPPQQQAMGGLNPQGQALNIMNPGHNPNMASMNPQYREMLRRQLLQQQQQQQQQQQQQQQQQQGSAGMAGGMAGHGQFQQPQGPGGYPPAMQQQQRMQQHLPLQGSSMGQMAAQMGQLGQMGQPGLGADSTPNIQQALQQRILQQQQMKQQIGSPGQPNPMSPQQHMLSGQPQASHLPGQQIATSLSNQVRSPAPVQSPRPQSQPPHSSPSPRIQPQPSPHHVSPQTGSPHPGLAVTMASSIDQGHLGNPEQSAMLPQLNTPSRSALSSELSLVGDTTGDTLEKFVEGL

pIC50 [1] | pIC50 [2] | pIC50 [3] | pIC50 (CREB-binding protein) | SMILES
7.22 | 7.15 | 6.92 | 5.59 | Cc1cc(N2C(=O)c3nn(C(C)C)c(C)c3C2c2ccc(Cl)cc2F)cn2c(C)nnc12 (stereo not given)
6.77 | 6.72 | 6.57 | 5.55 | Cc1[nH]nc2c1C(c1ccc(Cl)cc1F)N(c1cc(C)c(=O)n(C)c1)C2=O (stereo not given)
7.10 | 7.26 | 6.89 | 4.80 | COc1ncccc1-n1nc2c(c1C)C(c1ccc(F)cc1F)N(c1cc(C)c3nnc(C)n3c1)C2=O (stereo not given)
7.36 |  | 7.28 | 5.32 | CCc1nn(CCOC)c2c1C(c1ccc(Cl)cc1)N(c1cc(C)c(=O)n(C)c1)C2=O (stereo not given)
